Results: patent US6525001B1, “Substituted pyrimidine and pyridine herbicides” (Mid-American Commercialization Corporation, priority 1997, dated 2003)

Experiments:
Format in all cases: in vivo
[1] = tested on: cocklebur (Xanthium strumarium); assay: Test C; set-up: key: 0 was no effect; 100 was complete control; conditions: PREEMERGENCE
[2] = tested on: hairy beggarticks (Bidens pilosa); assay: Test C; set-up: key: 0 was no effect; 100 was complete control; conditions: PREEMERGENCE
[3] = tested on: soybean (Glycine max); assay: Test C; set-up: key: 0 was no effect; 100 was complete control; conditions: PREEMERGENCE
[4] = tested on: wild poinsettia (Euphorbia heterophylla); assay: Test C; set-up: key: 0 was no effect; 100 was complete control; conditions: PREEMERGENCE
[5] = tested on: purple nutsedge (Cyperus rotundus); assay: Test E pre-/postemergence/post directed; set-up: key: 0 is no injury; 100 is complete control
Outline: (§1)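 Three application modes in greenhouse pots: preemergence soil spray, postemergence foliar spray at two to four leaves, and post-directed spray to soil and plant base. Ratings of 0–100 injury, assigned visually against untreated controls 13 to 21 days later.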

[6] = tested on: sandbur (Cenchrus echinatus); assay: Test E pre-/postemergence/post directed; set-up: key: 0 is no injury; 100 is complete control; conditions: POSTEMERGENCE, Rate 32 g/ha
Outline: as §1

[7] = tested on: Spanishneedles (Bidens bipinnata); assay: Test E pre-/postemergence/post directed
Outline: as §1

[8] = tested on: alexandergrass (Brachiaria plantaginea); assay: Test E pre-/postemergence/post directed
Outline: as §1

[9] = tested on: bermudagrass (Cynodon dactylon); assay: Test E pre-/postemergence/post directed
Outline: as §1

[10] = tested on: common ragweed (Ambrosia elatior); assay: Test E pre-/postemergence/post directed; conditions: POSTEMERGENCE
Outline: as §1

[11] = tested on: johnson grass (Sorghum halepense); assay: Test E pre-/postemergence/post directed
Outline: as §1

[12] = tested on: large crabgrass (Digitaria sanguinalis); assay: Test E pre-/postemergence/post directed
Outline: as §1

[13] = tested on: sandbur (Cenchrus echinatus); assay: Test E pre-/postemergence/post directed
Outline: as §1

[14] = tested on: bermudagrass (Cynodon dactylon); assay: Test E pre-/postemergence/post directed; set-up: key: 0 is no effect; 100 is complete control; conditions: PREEMERGENCE
Outline: as §1

[15] = tested on: common groundsel (Senecio vulgaris); assay: Test E pre-/postemergence/post directed; set-up: key: 0 is no effect; 100 is complete control; conditions: PREEMERGENCE
Outline: as §1

[16] = tested on: common ragweed (Ambrosia elatior); assay: Test E pre-/postemergence/post directed; set-up: key: 0 is no effect; 100 is complete control; conditions: PREEMERGENCE
Outline: as §1

[17] = tested on: goosegrass (Eleusine indica); assay: Test E pre-/postemergence/post directed; set-up: key: 0 is no effect; 100 is complete control
Outline: as §1

[18] = tested on: large crabgrass (Digitaria sanguinalis); assay: Test E pre-/postemergence/post directed; set-up: key: 0 is no effect; 100 is complete control; conditions: PREEMERGENCE
Outline: as §1

[19] = tested on: sourgrass (Trichachne insularis); assay: Test E pre-/postemergence/post directed; set-up: key: 0 is no effect; 100 is complete control
Outline: as §1

[20] = tested on: surinam grass (Brachiaria decumbens); assay: Test E pre-/postemergence/post directed; set-up: key: 0 is no effect; 100 is complete control; conditions: PREEMERGENCE
Outline: as §1

Structure (SMILES): Cc1cnc(-n2ccc(C(F)(F)F)n2)nc1Cc1cccc(C(F)(F)F)c1 [Example 2, 5-methyl-4-[[3-(trifluoromethyl)phenyl]methyl]-2-[3-(trifluoromethyl)-1H-pyrazol-1-yl]pyrimidine]
- Plant response rating, Cocklebur ([1]; Rate 35 g/ha): 0
- Plant response rating, Cocklebur ([1]; Rate 140 g/ha): 10
- Plant response rating, H. beggarticks ([2]; Rate 35 g/ha): 40
- Plant response rating, H. beggarticks ([2]; Rate 70 g/ha): 40
- Plant response rating, H. beggarticks ([2]; Rate 140 g/ha): 100
- Plant response rating, Soybean ([3]; Rate 35 g/ha): 0
- Plant response rating, Soybean ([3]; Rate 70 g/ha): 0
- Plant response rating, Soybean ([3]; Rate 140 g/ha): 40
- Plant response rating, Wild poinsettia ([4]; Rate 35 g/ha): 0
- Plant response rating, Wild poinsettia ([4]; Rate 70 g/ha): 5
- Plant response rating, Wild poinsettia ([4]; Rate 140 g/ha): 45
- Plant response rating, Purple nutsedge ([5]; POSTEMERGENCE, Rate 32 g/ha): 0
- Plant response rating, Purple nutsedge ([5]; POSTEMERGENCE, Rate 64 g/ha): 0
- Plant response rating, Purple nutsedge ([5]; POSTEMERGENCE, Rate 125 g/ha): 0
- Plant response rating, Purple nutsedge ([5]; POSTEMERGENCE, Rate 250 g/ha): 0
- Plant response rating, Purple nutsedge ([5]; POSTEMERGENCE, Rate 500 g/ha): 0
- Plant response rating, Purple nutsedge ([5]; PREEMERGENCE, Rate 32 g/ha): 0
- Plant response rating, Purple nutsedge ([5]; PREEMERGENCE, Rate 64 g/ha): 0
- Plant response rating, Purple nutsedge ([5]; PREEMERGENCE, Rate 125 g/ha): 0
- Plant response rating, Purple nutsedge ([5]; PREEMERGENCE, Rate 250 g/ha): 0
- Plant response rating, Purple nutsedge ([5]; PREEMERGENCE, Rate 500 g/ha): 0
- Plant response rating, Sandbur [6]: 0
- Plant response rating, Spanishneedles ([7]; POSTEMERGENCE, Rate 32 g/ha): 60
- Plant response rating, Spanishneedles ([7]; POSTEMERGENCE, Rate 64 g/ha): 60
- Plant response rating, Spanishneedles ([7]; POSTEMERGENCE, Rate 125 g/ha): 40
- Plant response rating, Spanishneedles ([7]; POSTEMERGENCE, Rate 500 g/ha): 70
- Plant response rating, Spanishneedles ([7]; PREEMERGENCE, Rate 32 g/ha): 80
- Plant response rating, Alexandergrass ([8]; POSTEMERGENCE, Rate 32 g/ha): 20
- Plant response rating, Alexandergrass ([8]; POSTEMERGENCE, Rate 64 g/ha): 30
- Plant response rating, Alexandergrass ([8]; POSTEMERGENCE, Rate 125 g/ha): 30
- Plant response rating, Alexandergrass ([8]; POSTEMERGENCE, Rate 250 g/ha): 80
- Plant response rating, Alexandergrass ([8]; POSTEMERGENCE, Rate 500 g/ha): 95
- Plant response rating, Alexandergrass ([8]; PREEMERGENCE, Rate 32 g/ha): 50
- Plant response rating, Alexandergrass ([8]; PREEMERGENCE, Rate 64 g/ha): 90
- Plant response rating, Bermudagrass ([9]; POSTEMERGENCE, Rate 32 g/ha): 10
- Plant response rating, Bermudagrass ([9]; POSTEMERGENCE, Rate 64 g/ha): 20
- Plant response rating, Bermudagrass ([9]; POSTEMERGENCE, Rate 125 g/ha): 35
- Plant response rating, Bermudagrass ([9]; POSTEMERGENCE, Rate 250 g/ha): 50
- Plant response rating, Bermudagrass ([9]; POSTEMERGENCE, Rate 500 g/ha): 75
- Plant response rating, Bermudagrass ([9]; PREEMERGENCE, Rate 32 g/ha): 98
- Plant response rating, Com. ragweed ([10]; Rate 32 g/ha): 50
- Plant response rating, Com. ragweed ([10]; Rate 125 g/ha): 75
- Plant response rating, Com. ragweed ([10]; Rate 250 g/ha): 75
- Plant response rating, Com. ragweed ([10]; Rate 500 g/ha): 75
- Plant response rating, Johnsongrass ([11]; POSTEMERGENCE, Rate 32 g/ha): 10
- Plant response rating, Johnsongrass ([11]; POSTEMERGENCE, Rate 64 g/ha): 60
- Plant response rating, Johnsongrass ([11]; POSTEMERGENCE, Rate 125 g/ha): 60
- Plant response rating, Johnsongrass ([11]; POSTEMERGENCE, Rate 250 g/ha): 80
- Plant response rating, Johnsongrass ([11]; POSTEMERGENCE, Rate 500 g/ha): 95
- Plant response rating, Johnsongrass ([11]; PREEMERGENCE, Rate 32 g/ha): 65
- Plant response rating, Johnsongrass ([11]; PREEMERGENCE, Rate 64 g/ha): 98
- Plant response rating, Johnsongrass ([11]; PREEMERGENCE, Rate 125 g/ha): 85
- Plant response rating, Large crabgrass ([12]; POSTEMERGENCE, Rate 32 g/ha): 35
- Plant response rating, Large crabgrass ([12]; POSTEMERGENCE, Rate 64 g/ha): 35
- Plant response rating, Large crabgrass ([12]; POSTEMERGENCE, Rate 125 g/ha): 75
- Plant response rating, Large crabgrass ([12]; POSTEMERGENCE, Rate 250 g/ha): 80
- Plant response rating, Large crabgrass ([12]; POSTEMERGENCE, Rate 500 g/ha): 90
- Plant response rating, Large crabgrass ([12]; PREEMERGENCE, Rate 32 g/ha): 98
- Plant response rating, Sandbur ([13]; POSTEMERGENCE, Rate 64 g/ha): 10
- Plant response rating, Sandbur ([13]; POSTEMERGENCE, Rate 125 g/ha): 10
- Plant response rating, Sandbur ([13]; POSTEMERGENCE, Rate 250 g/ha): 50
- Plant response rating, Sandbur ([13]; POSTEMERGENCE, Rate 500 g/ha): 80
- Plant response rating, Sandbur ([13]; PREEMERGENCE, Rate 32 g/ha): 20
- Plant response rating, Sandbur ([13]; PREEMERGENCE, Rate 64 g/ha): 65
- Plant response rating, Sandbur ([13]; PREEMERGENCE, Rate 125 g/ha): 90
- Plant response rating, Bermudagrass ([14]; Rate 64 g/ha): 100
- Plant response rating, Bermudagrass ([14]; Rate 125 g/ha): 100
- Plant response rating, Bermudagrass ([14]; Rate 250 g/ha): 100
- Plant response rating, Bermudagrass ([14]; Rate 500 g/ha): 100
- Plant response rating, Com. groundsel ([15]; Rate 32 g/ha): 100
- Plant response rating, Com. groundsel ([15]; Rate 64 g/ha): 100
- Plant response rating, Com. groundsel ([15]; Rate 125 g/ha): 100
- Plant response rating, Com. groundsel ([15]; Rate 250 g/ha): 100
- Plant response rating, Com. groundsel ([15]; Rate 500 g/ha): 100
- Plant response rating, Com. ragweed ([16]; Rate 32 g/ha): 100
- Plant response rating, Com. ragweed ([16]; Rate 64 g/ha): 100
- Plant response rating, Com. ragweed ([16]; Rate 125 g/ha): 100
- Plant response rating, Com. ragweed ([16]; Rate 250 g/ha): 100
- Plant response rating, Com. ragweed ([16]; Rate 500 g/ha): 100
- Plant response rating, Goosegrass ([17]; POSTEMERGENCE, Rate 32 g/ha): 60
- Plant response rating, Goosegrass ([17]; POSTEMERGENCE, Rate 64 g/ha): 75
- Plant response rating, Goosegrass ([17]; POSTEMERGENCE, Rate 250 g/ha): 90
- Plant response rating, Goosegrass ([17]; POSTEMERGENCE, Rate 500 g/ha): 95
- Plant response rating, Goosegrass ([17]; PREEMERGENCE, Rate 32 g/ha): 95
- Plant response rating, Goosegrass ([17]; PREEMERGENCE, Rate 64 g/ha): 100
- Plant response rating, Goosegrass ([17]; PREEMERGENCE, Rate 125 g/ha): 100
- Plant response rating, Goosegrass ([17]; PREEMERGENCE, Rate 250 g/ha): 100
- Plant response rating, Goosegrass ([17]; PREEMERGENCE, Rate 500 g/ha): 100
- Plant response rating, Large crabgrass ([18]; Rate 64 g/ha): 100
- Plant response rating, Large crabgrass ([18]; Rate 125 g/ha): 100
- Plant response rating, Large crabgrass ([18]; Rate 250 g/ha): 100
- Plant response rating, Large crabgrass ([18]; Rate 500 g/ha): 100
- Plant response rating, Sourgrass ([19]; POSTEMERGENCE, Rate 32 g/ha): 10
- Plant response rating, Sourgrass ([19]; POSTEMERGENCE, Rate 64 g/ha): 20
- Plant response rating, Sourgrass ([19]; POSTEMERGENCE, Rate 125 g/ha): 20
- Plant response rating, Sourgrass ([19]; POSTEMERGENCE, Rate 250 g/ha): 40
- Plant response rating, Sourgrass ([19]; POSTEMERGENCE, Rate 500 g/ha): 80
- Plant response rating, Sourgrass ([19]; PREEMERGENCE, Rate 32 g/ha): 100
- Plant response rating, Sourgrass ([19]; PREEMERGENCE, Rate 64 g/ha): 100
- Plant response rating, Sourgrass ([19]; PREEMERGENCE, Rate 125 g/ha): 100
- Plant response rating, Sourgrass ([19]; PREEMERGENCE, Rate 250 g/ha): 100
- Plant response rating, Sourgrass ([19]; PREEMERGENCE, Rate 500 g/ha): 100
- Plant response rating, Surinam grass ([20]; Rate 125 g/ha): 100
- Plant response rating, Surinam grass ([20]; Rate 250 g/ha): 100
- Plant response rating, Surinam grass ([20]; Rate 500 g/ha): 100
